From US20260364057A1, “AMIDE COMPOUND, AND COMPOSITION AND USE THEREOF” (SIMCERE ZAIMING PHARMACEUTICAL CO., LTD., priority 2022, published 2026)

Key:
[1] = target: T1, Human KIF18A (1-376aa) (Homo sapiens, UniProt Q8NI77); experiment: KIF18A enzyme activity assay (ADP-Glo); format: biochemical; conditions: microtubule 50 μg/mL, ATP (Km 70 μM), room temperature, 15 min, read-out: KIF18A inhibitory activity IC50
T1 construct: Human KIF18A (1-376aa) protease used in the experiments; purchased Shanghai Panchao Biotechnology Co., Ltd
T1 sequence (Q8NI77 1-376): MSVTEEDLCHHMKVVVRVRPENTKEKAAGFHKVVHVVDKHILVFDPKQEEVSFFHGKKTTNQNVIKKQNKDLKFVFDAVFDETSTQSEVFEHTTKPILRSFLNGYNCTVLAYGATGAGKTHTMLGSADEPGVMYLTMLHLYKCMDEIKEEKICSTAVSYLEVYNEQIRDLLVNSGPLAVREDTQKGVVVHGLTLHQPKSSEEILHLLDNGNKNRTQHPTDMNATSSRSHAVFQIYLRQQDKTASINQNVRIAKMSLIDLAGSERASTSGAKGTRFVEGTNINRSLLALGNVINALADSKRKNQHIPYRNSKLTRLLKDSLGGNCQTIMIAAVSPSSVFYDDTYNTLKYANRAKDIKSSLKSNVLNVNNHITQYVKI
Experimental: Test Example 1: KIF18A Enzyme Activity Assay
Based on the ADP-Glo™ Kinase Assay, the ADP amount generated in the reaction was detected to reflect the enzyme activity of KIF18A.
Human KIF18A (1-376aa) […] used in the experiments, expressed by Shanghai Panchao Biotechnology Co., Ltd., was stored at −80 °C (no more than 5 freeze-thaw cycles).
The assay kit (ADP-Glo™ Kinase Assay) was purchased from Promega (Cat. No. V9101) and stored at −30 °C. The kit detects the enzyme activity by measuring ADP generated in enzyme reaction. The KIF18A enzyme and ATP generate ADP. The remaining ATP in this reaction is consumed by the ADP-Glo reagent, while the ADP generated by the KIF18A enzyme reaction is converted back to ATP by the assay reagent. The ATP then reacts with luciferin in the presence of Ultra-Glo™ luciferase, producing luminescence. The luminescent signal is positively correlated with the activity of the KIF18A enzyme.
Compounds were each subjected to 3-fold serial dilution starting from 10 μM to obtain 10 concentration points. The compounds and pure DMSO (control) were pipetted into wells of a 384-well plate using an Echo instrument, and the total volume of compound and DMSO was 100 nL; sample concentrations of gradient dilution were obtained by the instrument based on different ratios. Preparation of a KIF18A enzyme reaction buffer: […], 10 mM MgCl2, 0.01% Pluronic F-68, 1 μM Taxol, and 50 μg/mL Microtubule. KIF18A and the enzyme reaction buffer were mixed, and then the mixed solution was added to the 384-well plate and incubated at room temperature for 15 min. ATP (Km 70 μM) was then added to the mixed solution, and the mixed solution was incubated at room temperature for 15 min. 10 μL of ADP-Glo™ Reagent was well mixed with 10 μL of the mixed solution, and the mixture was incubated at room temperature for 40 min. Finally, 20 μL of ADP-Glo™ Detection Reagent was added, and the mixture was incubated at room temperature for 30 min. The chemiluminescent signal in each well was measured using an Envision plate reader (PerkinElmer, emission wavelength: 400-700 nm). In the experiment, 1 column of wells with no compound and no enzyme (chemiluminescence value was taken as [RLU]background) and 1 column of wells with enzyme but no compound (chemiluminescence value was taken as [RLU]enzyme) were provided. The chemiluminescence value of the compound adding group was taken as [RLU]cpd. The inhibition rate of the compound on […] was calculated according to the following equation: inhibition rate (%)=([RLU]enzyme−[RLU]cpd)/([RLU]enzyme−[RLU]background)×100%, and the inhibitory activity IC50 value of the compound on the enzyme activity was calculated using a four-parameter Logistic Model method. In the following equation, x represents the logarithmic form of the concentration of compound, and f (x) represents an effect value (inhibition rate of enzyme activity at the concentration): F(x)=(A+((B−A)/(1+((C/x)^D)))). A. B, C, and D are four parameters.

[2] = tested on: OVCAR3 cells; experiment: Inhibition of proliferation of OVCAR-3 cells (Cell-Titer Glo); format: cell-based; conditions: Homo sapiens, OVCAR-3, 72 h, 3 days, 1000 cells/well
Description: Test Example 2. Test on Inhibition of Proliferation of OVCAR-3 Cells by Compounds of Present Disclosure
Cell and material: The human ovarian cancer cell line OVCAR3 was purchased from ATCC (Cat. No. HTB-161™), RPMI 1640 medium (Gibco #A1049101), penicillin-streptomycin (Gibco #15140122), and 0.25% Trypsin-EDTA (Gibco #25200056) were purchased from Gibco (U.S.), bovine insulin (Yeasen #40107ES60) was purchased from Yeasen, 384-well plates (Corning #CLS3765) was purchased from Corning (U.S.), and Cell-Titer Glo reagent (Promega #G7568) was purchased from Promega (U.S.).
Cell culture: OVCAR3 cells were cultured in RPMI 1640 complete medium (RPMI 1640 medium containing 20% fetal bovine serum, […] bovine insulin, and 1% penicillin-streptomycin) in an incubator (37 °C, 5% CO2), and the cells could be used in experiments when in the logarithmic growth phase.
Cell proliferation activity test: The Cell-Titer Glo reagent was used to test the compound for inhibition of proliferation of the OVCAR3 cell strain. The compound formulated with DMSO and pure DMSO (control) were each added to a 384-well plate using an Echo instrument; the compound was subjected to 3-fold serial dilution starting from 30 μM to obtain 11 concentration points, and the volume of the compound or DMSO added was 100 nL.
OVCAR3 cells were digested and resuspended in RPMI 1640 complete medium, and the suspension was added to a 384-well plate (1000 cells/50 μL/well) to be well mixed with the compound. The mixture was incubated in an incubator (37 °C, 5% CO2) for 3 days. The Cell-Titer Glo reagent was added at 25 µL/well, and the resulting mixture was well mixed by shaking and then incubated for 10 min. The Cell-Titer Glo readings were measured with a Multimode Plate Reader (brand: PerkinElmer; model: SIC-PV-018).
A negative control group (Bottom) was set, and the negative control group was medium wells with 0.2% DMSO added and was defined as 100% proliferation inhibition; the positive control group (Top) was OVCAR3 cell wells with 0.2% DMSO added.
The percent proliferation inhibition (% Inhibition) was calculated, and the curves were fit using the four-parameter equation, Y=Bottom+(Top−Bottom)/(1+(IC50/X)^HillSlope), to obtain the proliferation inhibition IC50 of the compound. • Percent inhibition: % Inhibition=(1−(Signal−Bottom)/(Top−Bottom))×100%. • Signal: Cell-Titer Glo reading of wells with compound added; • Bottom: Cell-Titer Glo reading of negative control wells; • Top: Cell-Titer Glo reading of positive control wells.

Row | IC50 [1] | IC50 [2] | Structure (SMILES)
1 | < 200 nM | 15.7 nM | O=C(Nc1cc2ccoc2c(N2CCC(F)(F)CC2)n1)c1ccc(NS(=O)(=O)CCO)cc1N1CCC2(CC1)CC2 [Compound 106]
2 | < 200 nM | 6.5 nM | O=C(Nc1cccc2c1nc1n2CC2C1C2(F)F)c1ccc(NS(=O)(=O)CCO)cc1N1CCC2(CC1)CC2 (stereo not drawn) [Compound 86]
3 | < 200 nM | 93.3 nM | O=C(Nc1cccc2c1nc1n2CC2CC2C1)c1ccc(NS(=O)(=O)CCO)cc1N1CCC2(CC1)CC2 (stereo not drawn) [Compound 70]
4 | < 200 nM | 23.3 nM | O=C(Nc1cccc2c1nc1n2CC2CC1O2)c1ccc(NS(=O)(=O)CCO)cc1N1CCC2(CC1)CC2 (stereo not drawn) [Compound 59]
5 | < 500 nM | 86 nM | O=C(Nc1cccc2c1nc1n2C2COC1C2)c1ccc(NS(=O)(=O)CCO)cc1N1CCC2(CC1)CC2 (stereo not drawn) [Compound 83]
6 | < 200 nM | 15.3 nM | COC(=O)c1ccc(NC(=O)c2ccc(NS(=O)(=O)CCO)cc2N2CCC3(CC2)CC3)c2nc3n(c12)CCCCC3 [Compound 112]
7 | < 200 nM | 31.2 nM | CC1OCCn2c1nc1c(NC(=O)c3ccc(NS(=O)(=O)CCO)cc3N3CCC4(CC3)CC4)cccc12 (stereo not drawn) [Compound 56]
8 | < 200 nM | 10.7 nM | O=C(Nc1cc2c(c(N3CC4C(C3)C4(F)F)c1)OCC2)c1ccc(NS(=O)(=O)CCO)cc1N1CCC2(CC1)CC2 (stereo not drawn) [Compound 114]
9 | < 500 nM | 16.7 nM | O=C(Nc1cc2c(c(N3CCC(F)(F)CC3)n1)OCC2)c1ccc(NS(=O)(=O)CCO)cc1N1CCC2(CC1)CC2 [Compound 65]
10 | < 200 nM | 37.4 nM | O=C(Nc1cc2ccnn2c(N2CCC(F)(F)CC2)n1)c1ccc(NS(=O)(=O)CCO)cc1N1CCC2(CC1)CC2 [Compound 109]
11 | < 200 nM | 18.2 nM | O=C(Nc1cc(N2CCC(F)(F)CC2)n2nccc2c1)c1ccc(NS(=O)(=O)CCO)cc1N1CCC2(CC1)CC2 [Compound 81]
12 | < 200 nM | 11 nM | O=C(Nc1cc2c(c(N3CCC(F)(F)CC3)c1)OCCC2)c1ccc(NS(=O)(=O)CCO)cc1N1CCC2(CC1)CC2 [Compound 60]
13 | < 200 nM | 23 nM | O=C(Nc1cccc2c1cc1n2CCCCC1)c1ccc(NS(=O)(=O)CCO)cc1N1CCC2(CC1)CC2 [Compound 115]
14 | < 200 nM | 98 nM | O=C(Nc1cccc2c1nc1n2CC2CC1C2(F)F)c1ccc(NS(=O)(=O)CCO)cc1N1CCC2(CC1)CC2 (stereo not drawn) [Compound 88]
15 | < 200 nM | 70 nM | O=C(Nc1cc2c(c(N3CCC(F)(F)CC3)n1)COC2)c1ccc(NS(=O)(=O)CCO)cc1N1CCC2(CC1)CC2 [Compound 67]
16 | < 200 nM | 41.6 nM | CC1CCCCc2nc3c(NC(=O)c4ccc(NS(=O)(=O)CCO)cc4N4CCC5(CC4)CC5)cccc3n21 (stereo not drawn) [Compound 68]
17 | < 200 nM | 24 nM | O=C(Nc1cccc2c1nc1n2CC2CCC1C2(F)F)c1ccc(NS(=O)(=O)CCO)cc1N1CCC2(CC1)CC2 (stereo not drawn) [Compound 74]
18 | < 200 nM | 8 nM | Cn1cc(NC(=O)c2ccc(NS(=O)(=O)CCO)cc2N2CCC3(CC2)CC3)nc(N2CCC(F)(F)CC2)c1=O [Compound 58]

Continued, compound first:

Row | Structure (SMILES) | IC50 [1] | IC50 [2]
19 | N#Cc1ccc(NC(=O)c2ccc(NS(=O)(=O)CCO)cc2N2CCC3(CC2)CC3)c2nc3n(c12)CCCC3 [Compound 50] | < 200 nM | 48.9 nM
20 | O=C(Nc1cccc2c1nc1n2CCOCC1)c1ccc(NS(=O)(=O)CCO)cc1N1CCC2(CC1)CC2 [Compound 53] | < 200 nM | 21 nM
21 | O=C(Nc1cc2c(c3c1nc1n3CCCC1)OCC2)c1ccc(NS(=O)(=O)CCO)cc1N1CCC2(CC1)CC2 [Compound 42] | < 200 nM | 26.5 nM
22 | O=C(Nc1cccc2c1nc1n2CC2CC12)c1ccc(NS(=O)(=O)CCO)cc1N1CCC2(CC1)CC2 (stereo not drawn) [Compound 48] | < 200 nM | 20.4 nM
23 | O=C(Nc1cc2nccn2c(N2CCC(F)(F)CC2)n1)c1ccc(NS(=O)(=O)CCO)cc1N1CCC2(CC1)CC2 [Compound 14] |  | 77.6 nM
24 | O=C(Nc1cccc2c1nc1n2CCCC1)c1ccc(S(=O)(=O)NCCO)cc1N1CCC2(CC1)CC2 [Compound 39] | < 200 nM | 75.5 nM
25 | O=C(Nc1cc2c(c(N3CCOCC3)c1)OCC2)c1ccc(NS(=O)(=O)CCO)cc1N1CCC2(CC1)CC2 [Compound 51] | < 200 nM | 68.1 nM
26 | O=C(Nc1cccc2c1nc1n2CCCCC1)c1ccc(NS(=O)(=O)CCO)cc1N1CCC2(CC1)CC2 [Compound 24] | < 200 nM | 52 nM
27 | CC1Cn2c(nc3c(NC(=O)c4ccc(NS(=O)(=O)CCO)cc4N4CCC5(CC4)CC5)cccc32)CO1 (stereo not drawn) [Compound 55] | < 200 nM | 17.5 nM
28 | O=C(Nc1cc2c(c(N3CCC(F)(F)CC3)c1)OCC2)c1ccc(NS(=O)(=O)CCO)cc1N1CCC2(CC1)CC2 [Compound 28] | < 200 nM | 3.67 nM
29 | O=C(Nc1cn2ccnc2c(N2CCC(F)(F)CC2)n1)c1ccc(NS(=O)(=O)CCO)cc1N1CCC2(CC1)CC2 [Compound 44] | < 200 nM | 9.13 nM
30 | O=C(Nc1cccc2c1nc1n2CC2CCC1C2)c1ccc(NS(=O)(=O)CCO)cc1N1CCC2(CC1)CC2 (stereo not drawn) [Compound 35] | < 200 nM | 88 nM
31 | O=C(Nc1cccc2c1nc1n2CCC(F)(F)CC1)c1ccc(NS(=O)(=O)CCO)cc1N1CCC2(CC1)CC2 [Compound 49] | < 200 nM | 49.6 nM
32 | O=C(Nc1cccc2c1nc1n2C2CCC1CC2)c1ccc(NS(=O)(=O)CCO)cc1N1CCC2(CC1)CC2 [Compound 47] | < 200 nM | 56.2 nM
